Reference: patent publication US20240366801A1, “HYPERPO[…] AND PRODUCT” (CAMBRIDGE ENTERPRISE LIMITED, priority 2021, published 2024)

Tested on: rat liver
Assay: 13C MR spectra in rat liver after intravenous injection of hyperpolarised solution
Settings: 1 ml of 42 mM solution, 9.4T MRI
Description: The data was acquired in preclinical horizontal-bore 9.4T MRI system using a 10-mm diameter 13C surface coil and a series of 20-degree radiofrequency pulses applied every 2 s.

CC(O)[13C](=O)O (stereo not shown) [[1-13C]lactate, [1-13C]lactic acid]
downstream metabolites detected in 13C MR spectra: downstream metabolites could be detected
